This data set addresses ATXN2. The data set is described as follows: mouse, dose not given. The note with it: ASO.

The source of these data is the OligoGym collection.

HELM strings list units from the 5' end as sugar, base in round brackets, then linkage (d deoxyribose, r ribose, m 2'-O-methyl, p phosphodiester). Strings are as the collection lists them; they lack the last nucleoside at the 3' end of the tested compound. [moe] = 2'-O-(2-methoxyethyl) (MOE); [sp] = phosphorothioate linkage; [m5C] = 5-methylcytosine

The substance “RNA1{[moe](T)[sp].[moe](T)p.[moe](G)p.[moe](T)p.[moe](A)p.d([m5C])[sp].d(T)[sp].d(T)[sp].d([m5C])[sp].d(A)[sp].d([m5C])[sp].d(A)[sp].d(T)[sp].d(T)[sp].d(T)[sp].[moe](G)p.[moe](G)p.[moe](A)[sp].[moe](G)}$$$$ (last 3' nucleoside missing)” had a 3 h FOB score of 3.75 score 0-7.

On to “RNA1{[moe](T)[sp].[moe](T)p.[moe](G)p.[moe](T)p.[moe](T)p.d(A)[sp].d([m5C])[sp].d(T)[sp].d(G)[sp].d(T)[sp].d(T)[sp].d(T)[sp].d([m5C])[sp].d(G)[sp].d(A)[sp].[moe]([m5C])p.[moe]([m5C])p.[moe](T)[sp].[moe]([m5C])}$$$$ (last 3' nucleoside missing)”, for which the 3 h FOB score came out at 4.25 score 0-7.

Consider “RNA1{[moe](T)[sp].[moe](T)p.[moe](G)p.[moe](T)p.[moe](T)p.d([m5C])[sp].d(T)[sp].d(T)[sp].d([m5C])[sp].d([m5C])[sp].d(A)[sp].d(A)[sp].d(T)[sp].d(T)[sp].d(T)[sp].[moe]([m5C])p.[moe](A)p.[moe](G)[sp].[moe](A)}$$$$ (last 3' nucleoside missing)”, for which the 3 h FOB score came to 0 score 0-7. Substance “RNA1{[moe](T)[sp].[moe](T)p.[moe](G)p.[moe]([m5C])p.[moe](A)p.d([m5C])[sp].d(A)[sp].d(T)[sp].d(A)[sp].d(G)[sp].d(G)[sp].d(T)[sp].d(T)[sp].d(A)[sp].d(G)[sp].[moe](A)p.[moe](A)p.[moe](T)[sp].[moe](T)}$$$$ (last 3' nucleoside missing)” returned a 3 h FOB score of 6.5 score 0-7. For “RNA1{[moe](T)[sp].[moe](T)p.[moe](T)p.[moe](G)p.[moe](A)p.d(A)[sp].d(T)[sp].d(T)[sp].d(A)[sp].d([m5C])[sp].d(A)[sp].d(A)[sp].d(T)[sp].d(G)[sp].d([m5C])[sp].[moe](G)p.[moe](G)p.[moe](T)[sp].[moe](A)}$$$$ (last 3' nucleoside missing)” the value was 3.5 score 0-7; for “RNA1{[moe](T)[sp].[moe](T)p.[moe](T)p.[moe](G)p.[moe](T)p.d(T)[sp].d(A)[sp].d([m5C])[sp].d(T)[sp].d(G)[sp].d(T)[sp].d(T)[sp].d(T)[sp].d([m5C])[sp].d(G)[sp].[moe](A)p.[moe]([m5C])p.[moe]([m5C])[sp].[moe](T)}$$$$ (last 3' nucleoside missing)”, 5 score 0-7; for “RNA1{[moe](T)[sp].[moe](T)p.[moe](T)p.[moe](G)p.[moe]([m5C])p.d(T)[sp].d(T)[sp].d(A)[sp].d(T)[sp].d(T)[sp].d(A)[sp].d(T)[sp].d(T)[sp].d([m5C])[sp].d(T)[sp].[moe]([m5C])p.[moe](A)p.[moe]([m5C])[sp].[moe](A)}$$$$ (last 3' nucleoside missing)”, 0 score 0-7.

“RNA1{[moe](T)[sp].[moe](T)p.[moe](T)p.[moe](T)p.[moe](G)p.d(A)[sp].d(A)[sp].d(T)[sp].d(T)[sp].d(A)[sp].d([m5C])[sp].d(A)[sp].d(A)[sp].d(T)[sp].d(G)[sp].[moe]([m5C])p.[moe](G)p.[moe](G)[sp].[moe](T)}$$$$ (last 3' nucleoside missing)” registered a 3 h FOB score of 2 score 0-7. To “RNA1{[moe](T)[sp].[moe](T)p.[moe](T)p.[moe](T)p.[moe](G)p.d([m5C])[sp].d(T)[sp].d(T)[sp].d(A)[sp].d(T)[sp].d(T)[sp].d(A)[sp].d(T)[sp].d(T)[sp].d([m5C])[sp].[moe](T)p.[moe]([m5C])p.[moe](A)[sp].[moe]([m5C])}$$$$ (last 3' nucleoside missing)” belongs 0 score 0-7. For “RNA1{[moe](T)[sp].[moe](T)p.[moe](T)p.[moe](T)p.[moe](T)p.d(G)[sp].d([m5C])[sp].d(T)[sp].d(T)[sp].d(A)[sp].d(T)[sp].d(T)[sp].d(A)[sp].d(T)[sp].d(T)[sp].[moe]([m5C])p.[moe](T)p.[moe]([m5C])[sp].[moe](A)}$$$$ (last 3' nucleoside missing)” the value was 0 score 0-7; for “RNA1{[moe](T)[sp].[moe](T)p.[moe](T)p.[moe](T)p.[moe]([m5C])[sp].d(T)[sp].d([m5C])[sp].d(A)[sp].d(T)[sp].d(G)[sp].d(T)[sp].d(G)[sp].d([m5C])[sp].[moe](G)p.[moe](G)p.[moe]([m5C])[sp].[moe](A)}$$$$ (last 3' nucleoside missing)”, 5.5 score 0-7. Substance “RNA1{[moe](T)[sp].[moe](T)p.[moe](T)p.[moe](T)p.[moe]([m5C])p.d(T)[sp].d([m5C])[sp].d(A)[sp].d(T)[sp].d(G)[sp].d(T)[sp].d(G)[sp].d([m5C])[sp].d(G)[sp].d(G)[sp].[moe]([m5C])p.[moe](A)p.[moe](T)[sp].[moe]([m5C])}$$$$ (last 3' nucleoside missing)” yielded a 3 h FOB score of 5 score 0-7. Take “RNA1{[moe](T)[sp].[moe](T)p.[moe](T)p.[moe]([m5C])p.[moe](T)p.d([m5C])[sp].d(A)[sp].d(T)[sp].d(G)[sp].d(T)[sp].d(G)[sp].d([m5C])[sp].d(G)[sp].d(G)[sp].d([m5C])[sp].[moe](A)p.[moe](T)p.[moe]([m5C])[sp].[moe](A)}$$$$ (last 3' nucleoside missing)”: the 3 h FOB score was determined as 6 score 0-7. For “RNA1{[moe](T)[sp].[moe](T)p.[moe]([m5C])p.[moe](T)[sp].[moe]([m5C])[sp].d(T)[sp].d(A)[sp].d(T)[sp].d(T)[sp].d(T)[sp].d([m5C])[sp].d(T)[sp].d(T)[sp].d(T)[sp].d(G)[sp].[moe](T)p.[moe]([m5C])p.[moe]([m5C])[sp].[moe](A)}$$$$ (last 3' nucleoside missing)” the value was 4 score 0-7. To “RNA1{[moe](T)[sp].[moe](T)p.[moe]([m5C])p.[moe](T)p.[moe](G)[sp].d(T)[sp].d(A)[sp].d([m5C])[sp].d(T)[sp].d(T)[sp].d(T)[sp].d(T)[sp].d([m5C])[sp].[moe](T)p.[moe]([m5C])p.[moe](A)[sp].[moe](T)}$$$$ (last 3' nucleoside missing)” belongs 2.5 score 0-7; to “RNA1{[moe](T)[sp].[moe](T)p.[moe]([m5C])p.[moe](T)p.[moe](G)[sp].d([m5C])[sp].d(T)[sp].d(A)[sp].d(A)[sp].d([m5C])[sp].d(T)[sp].d(G)[sp].d(G)[sp].[moe](T)p.[moe](T)p.[moe](T)[sp].[moe](G)}$$$$ (last 3' nucleoside missing)”, 1.75 score 0-7. To “RNA1{[moe](T)[sp].[moe](T)p.[moe]([m5C])p.[moe](T)p.[moe](G)p.d(T)[sp].d(A)[sp].d([m5C])[sp].d(T)[sp].d(T)[sp].d(T)[sp].d(T)[sp].d([m5C])[sp].d(T)[sp].d([m5C])[sp].[moe](A)p.[moe](T)p.[moe](G)[sp].[moe](T)}$$$$ (last 3' nucleoside missing)” belongs 4.5 score 0-7; to “RNA1{[moe](T)[sp].[moe](T)p.[moe]([m5C])p.[moe](T)p.[moe](G)p.d([m5C])[sp].d(T)[sp].d(A)[sp].d(A)[sp].d([m5C])[sp].d(T)[sp].d(G)[sp].d(G)[sp].d(T)[sp].d(T)[sp].[moe](T)p.[moe](G)p.[moe]([m5C])[sp].[moe]([m5C])}$$$$ (last 3' nucleoside missing)”, 2 score 0-7.
